Results taken from ChEMBL document CHEMBL1201862, “PubChem BioAssay data set” (2004).
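1) Cells in 96-well plates. 2) Compound, 48 h, 5 concentrations. 3) Linear interpolation between surrounding doses. 4) Unreached endpoint = highest concentration. GI50 = concentration required for 50% inhibition of growth.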 The source made the active and inactive calls. No stated cut-off is given here; in the data, active = GI50 up to about 1.1 µM and inactive = higher. Non-standard residues stand in square brackets, D forms with d. Residues, ends and D or L forms follow the SMILES beside them. *: point of attachment. Ac5c = NC1(C(=O)O)CCCC1; Cbz = O=C(OCc1ccccc1)*; Boc = CC(C)(C)OC(=O)*; tBu = CC(C)(C)*

Key:
Experiment in all cases: growth of human tumour cells (NCI), 48 h
MDA-N = tested on: MDA-N
ACHN = tested on: ACHN
PC-3 = tested on: PC-3
SNB-75 = tested on: SNB-75
OVCAR-8 = tested on: OVCAR-8
IGROV-1 = tested on: IGROV-1
MCF7 = tested on: MCF7
UACC-62 = tested on: UACC-62
SW-620 = tested on: SW-620
A549 = tested on: A549
DU-145 = tested on: DU-145
RPMI-8226 = tested on: RPMI-8226
CAKI-1 = tested on: CAKI-1
EKVX = tested on: EKVX
A498 = tested on: A498
MDA-MB-231 = tested on: MDA-MB-231
LOX IMVI = tested on: LOX IMVI
KM12 = tested on: KM12
SR = tested on: SR
SK-MEL-5 = tested on: SK-MEL-5
SK-MEL-28 = tested on: SK-MEL-28
SNB-19 = tested on: SNB-19
MDA-MB-435 = tested on: MDA-MB-435
OVCAR-5 = tested on: OVCAR-5
UACC-257 = tested on: UACC-257
K562 = tested on: K562
U-251 = tested on: U-251
TK-10 = tested on: TK-10
RXF 393 = tested on: RXF 393
UO-31 = tested on: UO-31
CCRF-CEM = tested on: CCRF-CEM
M14 = tested on: M14
HCT-116 = tested on: HCT-116
HL-60 = tested on: HL-60
SK-MEL-2 = tested on: SK-MEL-2
SK-OV-3 = tested on: SK-OV-3
SN12C = tested on: SN12C
HT-29 = tested on: HT-29
Hs-578T = tested on: Hs-578T
786-0 = tested on: 786-0
HOP-92 = tested on: HOP-92
HCT-15 = tested on: HCT-15
MOLT-4 = tested on: MOLT-4
HOP-62 = tested on: HOP-62
SF-268 = tested on: SF-268
SF-295 = tested on: SF-295
OVCAR-4 = tested on: OVCAR-4
COLO 205 = tested on: COLO 205
Malme-3M = tested on: Malme-3M
NCI/ADR-RES = tested on: NCI/ADR-RES
SF-539 = tested on: SF-539
NCI-H460 = tested on: NCI-H460
NCI-H23 = tested on: NCI-H23
T47D = tested on: T47D
HCC 2998 = tested on: HCC 2998
NCI-H226 = tested on: NCI-H226
NCI-H522 = tested on: NCI-H522
OVCAR-3 = tested on: OVCAR-3

For `CCOC(=O)/C=C/c1nc(C#N)c(N)o1`, the GI50 (MDA-N) was > 100 µM (inactive), the GI50 (ACHN) was > 100 µM (inactive) and the GI50 (PC-3) was > 100 µM (inactive). The GI50 (SNB-75) was > 100 µM (inactive), the GI50 (OVCAR-8) was > 100 µM (inactive) and the GI50 (IGROV-1) was > 100 µM (inactive). For the same molecule, the GI50 (MCF7) was > 100 µM (inactive), the GI50 (UACC-62) was > 100 µM (inactive) and the GI50 (SW-620) was > 100 µM (inactive). For the same molecule, the GI50 (A549) was > 100 µM (inactive), the GI50 (DU-145) was > 100 µM (inactive) and the GI50 (RPMI-8226) was > 100 µM (inactive). The GI50 (CAKI-1) was > 100 µM (inactive), the GI50 (EKVX) was > 100 µM (inactive) and the GI50 (A498) was > 100 µM (inactive). The GI50 (MDA-MB-231) was > 100 µM (inactive), the GI50 (LOX IMVI) was > 100 µM (inactive) and the GI50 (KM12) was > 100 µM (inactive). For the same molecule, the GI50 (SR) was > 100 µM (inactive), the GI50 (SK-MEL-5) was > 100 µM (inactive) and the GI50 (SK-MEL-28) was > 100 µM (inactive). The GI50 (SNB-19) was > 100 µM (inactive), the GI50 (MDA-MB-435) was > 100 µM (inactive) and the GI50 (OVCAR-5) was > 100 µM (inactive). For the same molecule, the GI50 (UACC-257) was > 100 µM (inactive), the GI50 (K562) was > 100 µM (inactive) and the GI50 (U-251) was > 100 µM (inactive). For the same molecule, the GI50 (TK-10) was > 100 µM (inactive), the GI50 (RXF 393) was 1.46 µM (inactive) and the GI50 (UO-31) was 53.6 µM (inactive). For the same molecule, the GI50 (CCRF-CEM) was > 100 µM (inactive), the GI50 (M14) was > 100 µM (inactive) and the GI50 (HCT-116) was > 100 µM (inactive). The GI50 (HL-60) was > 100 µM (inactive), the GI50 (SK-MEL-2) was > 100 µM (inactive) and the GI50 (SK-OV-3) was > 100 µM (inactive). For the same molecule, the GI50 (SN12C) was > 100 µM (inactive), the GI50 (HT-29) was > 100 µM (inactive) and the GI50 (Hs-578T) was > 100 µM (inactive). The GI50 (786-0) was > 100 µM (inactive), the GI50 (HOP-92) was > 100 µM (inactive) and the GI50 (HCT-15) was greater than 100 µM. For the same molecule, the GI50 (MOLT-4) was > 100 µM (inactive), the GI50 (HOP-62) was > 100 µM (inactive) and the GI50 (SF-268) was > 100 µM (inactive).
For `O=C1OC[C@@H]2Cc3c([nH]c4ccccc34)[C@@H](c3cc(O)c(O)c(O)c3)N12`, the GI50 (MDA-N) was 5.97 µM (inactive), the GI50 (ACHN) was 31.2 µM (inactive) and the GI50 (SF-295) was 2.57 µM (inactive). The GI50 (PC-3) was 31.3 µM (inactive), the GI50 (SNB-75) was 3.29 µM (inactive) and the GI50 (OVCAR-4) was 12.9 µM (inactive). For the same molecule, the GI50 (OVCAR-8) was 16.4 µM (inactive), the GI50 (IGROV-1) was 25 µM (inactive) and the GI50 (MCF7) was 21.2 µM (inactive). For the same molecule, the GI50 (UACC-62) was 8.93 µM (inactive), the GI50 (SW-620) was 21.3 µM (inactive) and the GI50 (A549) was > 100 µM (inactive). The GI50 (DU-145) was 68.2 µM (inactive), the GI50 (COLO 205) was 23.4 µM (inactive) and the GI50 (RPMI-8226) was 27.5 µM (inactive). The GI50 (Malme-3M) was 4.37 µM (inactive), the GI50 (NCI/ADR-RES) was 21.8 µM (inactive) and the GI50 (CAKI-1) was 8.67 µM (inactive). The GI50 (EKVX) was 44.5 µM (inactive), the GI50 (A498) was 12 µM (inactive) and the GI50 (MDA-MB-231) was 20.7 µM (inactive). The GI50 (SF-539) was 18.9 µM (inactive), the GI50 (KM12) was 44.5 µM (inactive) and the GI50 (NCI-H460) was 37.8 µM (inactive). The GI50 (SR) was 13.9 µM (inactive), the GI50 (SK-MEL-5) was 8.39 µM (inactive) and the GI50 (SK-MEL-28) was 17.3 µM (inactive). For the same molecule, the GI50 (NCI-H23) was 29.4 µM (inactive), the GI50 (SNB-19) was 24 µM (inactive) and the GI50 (MDA-MB-435) was 2.69 µM (inactive). The GI50 (OVCAR-5) was 19.7 µM (inactive), the GI50 (UACC-257) was 2.99 µM (inactive) and the GI50 (K562) was 3.91 µM (inactive). For the same molecule, the GI50 (U-251) was 25.3 µM (inactive), the GI50 (TK-10) was 41.5 µM (inactive) and the GI50 (RXF 393) was 18.9 µM (inactive). The GI50 (UO-31) was 27.3 µM (inactive), the GI50 (CCRF-CEM) was 12.6 µM (inactive) and the GI50 (M14) was 15.2 µM (inactive). The GI50 (T47D) was 37 µM (inactive), the GI50 (HCC 2998) was 48.1 µM (inactive) and the GI50 (HCT-116) was 25.3 µM (inactive). For the same molecule, the GI50 (HL-60) was 2.72 µM (inactive), the GI50 (SK-MEL-2) was 3.14 µM (inactive) and the GI50 (SK-OV-3) was > 100 µM (inactive). The GI50 (SN12C) was 26.9 µM (inactive), the GI50 (NCI-H226) was 13.5 µM (inactive) and the GI50 (HT-29) was 31 µM (inactive). The GI50 (Hs-578T) was 15.7 µM (inactive), the GI50 (NCI-H522) was 5.09 µM (inactive) and the GI50 (786-0) was 20.6 µM (inactive). For the same molecule, the GI50 (HOP-92) was > 100 µM (inactive), the GI50 (HCT-15) was 31 µM and the GI50 (MOLT-4) was 32.6 µM (inactive). For the same molecule, the GI50 (HOP-62) was 21.4 µM (inactive) and the GI50 (SF-268) was 34.9 µM (inactive).
For `COC(=O)C1(NC(=O)C(Cc2ccccc2)NC(=O)C(NC(=O)C(CCCCNC(=O)OC(C)(C)C)NC(=O)C(Cc2c[nH]c3ccccc23)NC(=O)C(Cc2ccccc2)NC(=O)OCc2ccccc2)C(C)OC(C)(C)C)CCCC1` (stereo not drawn) (Cbz-FWK(Boc)T(tBu)F[Ac5c]-OMe; configuration not given here), the GI50 (MDA-N) was > 100 µM (inactive), the GI50 (ACHN) was > 100 µM (inactive) and the GI50 (SF-295) was > 100 µM (inactive). For the same molecule, the GI50 (PC-3) was > 100 µM (inactive), the GI50 (SNB-75) was > 100 µM (inactive) and the GI50 (OVCAR-4) was > 100 µM (inactive). For the same molecule, the GI50 (OVCAR-8) was > 100 µM (inactive), the GI50 (IGROV-1) was 88.1 µM (inactive) and the GI50 (MCF7) was > 100 µM (inactive). For the same molecule, the GI50 (UACC-62) was > 100 µM (inactive), the GI50 (SW-620) was 51.6 µM (inactive) and the GI50 (A549) was > 100 µM (inactive). The GI50 (DU-145) was > 100 µM (inactive), the GI50 (COLO 205) was > 100 µM (inactive) and the GI50 (RPMI-8226) was > 100 µM (inactive). The GI50 (Malme-3M) was > 100 µM (inactive), the GI50 (NCI/ADR-RES) was > 100 µM (inactive) and the GI50 (CAKI-1) was > 100 µM (inactive). The GI50 (EKVX) was > 100 µM (inactive), the GI50 (A498) was > 10 µM (inactive) and the GI50 (MDA-MB-231) was 25.9 µM (inactive). The GI50 (LOX IMVI) was 80.9 µM (inactive), the GI50 (SF-539) was > 10 µM (inactive) and the GI50 (KM12) was > 100 µM (inactive). The GI50 (NCI-H460) was > 100 µM (inactive), the GI50 (SR) was > 100 µM (inactive) and the GI50 (SK-MEL-5) was 3.96 µM (inactive). The GI50 (SK-MEL-28) was > 100 µM (inactive), the GI50 (NCI-H23) was > 100 µM (inactive) and the GI50 (OVCAR-3) was > 100 µM (inactive). The GI50 (SNB-19) was 52.2 µM (inactive), the GI50 (MDA-MB-435) was > 100 µM (inactive) and the GI50 (OVCAR-5) was 64.1 µM (inactive). The GI50 (UACC-257) was > 100 µM (inactive), the GI50 (K562) was > 100 µM (inactive) and the GI50 (U-251) was 34 µM (inactive). The GI50 (TK-10) was > 100 µM (inactive), the GI50 (RXF 393) was > 100 µM (inactive) and the GI50 (UO-31) was > 100 µM (inactive). For the same molecule, the GI50 (CCRF-CEM) was 98.9 µM (inactive), the GI50 (M14) was 18.9 µM (inactive) and the GI50 (T47D) was 24.6 µM (inactive). The GI50 (HCC 2998) was > 100 µM (inactive), the GI50 (HCT-116) was > 100 µM (inactive) and the GI50 (HL-60) was > 100 µM (inactive). For the same molecule, the GI50 (SK-MEL-2) was 6.61 µM (inactive), the GI50 (SK-OV-3) was 93.3 µM (inactive) and the GI50 (SN12C) was > 100 µM (inactive). For the same molecule, the GI50 (NCI-H226) was > 100 µM (inactive), the GI50 (HT-29) was > 100 µM (inactive) and the GI50 (Hs-578T) was > 100 µM (inactive). For the same molecule, the GI50 (NCI-H522) was 19 µM (inactive), the GI50 (786-0) was > 100 µM (inactive) and the GI50 (HOP-92) was 68.9 µM (inactive). The GI50 (HCT-15) was greater than 100 µM, the GI50 (HOP-62) was 65 µM (inactive) and the GI50 (SF-268) was > 100 µM (inactive).
